Measured values as given in patent US20060069132A1, “Azolecarboxamide herbicides” (priority 2004, published 2006).

Experiments:
rice [1] = test: Test B pre-/postemergence herbicide test; type: in vivo, Oryza sativa; settings: preemergence
In short: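 Response was scored visually 13 to 15 days after treatment against untreated greenhouse controls, 0 meaning no effect and 100 complete control. Formulations (solvent mixture plus surfactant) went onto soil after planting, onto foliage of 1- to 4-leaf plants, and onto 2-leaf plants in a flooded paddy set including rice and barnyardgrass.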

giant foxtail = test: Test C pre-/postemergence herbicide test; type: in vivo, Setaria faberi
In short: (§1)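 Preemergence: seeds planted and treated with compound in non-phytotoxic solvent with surfactant; postemergence: plants at 2 to 18 cm (1- to 4-leaf stage) sprayed likewise. Kept in greenhouse 12 to 14 days, then visually rated against controls, 0 (no effect) to 100 (complete control).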

eastern black nightshade = test: Test C pre-/postemergence herbicide test; type: in vivo, Solanum ptycanthum; settings: preemergence
In short: as §1

common ragweed = test: Test C pre-/postemergence herbicide test; type: in vivo, Ambrosia elatior; parameters: key to Plant response rating, Ragweed: 0 = no effect, 100 = complete control
In short: as §1

[2] = test system: common (oilseed) sunflower; test: Test C pre-/postemergence herbicide test; type: in vivo, Helianthus annuus; settings: preemergence
In short: as §1

rice [3] = test: Test C flooded paddy test; type: in vivo, Oryza sativa; settings: for Plant response rating, Rice: 500 g ai/ha, visual rating after 12 to 14 days
In short: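 Plants were grown to the 1- to 4-leaf stage (2–18 cm) and then treated postemergence, or grown to the 2-leaf stage for the flooded paddy test. They were held in a greenhouse for 12 to 14 days and then scored by eye against controls, where 0 is no effect and 100 is complete control.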

barnyardgrass = test: Test C flooded paddy test; type: in vivo, Echinochloa crus-galli; settings: for Plant response rating, Barnyardgrass: 500 g ai/ha, visual rating after 12 to 14 days
In short: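 Postemergence sprays were applied to plants 2 to 18 cm tall (1- to 4-leaf stage); in the flooded paddy test, barnyardgrass was grown to the 2-leaf stage. After 12 to 14 days in a greenhouse, injury was visually rated against untreated controls on a 0–100 scale (100 = complete control).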

morningglory = test: Test A pre-/postemergence herbicide test; type: in vivo, Ipomoea spp.; settings: for Plant response rating, Morningglory: Postemergence; for Morningglory plant response rating: Preemergence
In short: (§2)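 Sandy loam soil given preemergence directed spray; plants at 2 to 10 cm, one- to two-leaf stage, sprayed to runoff postemergence, compounds in non-phytotoxic solvent with surfactant. Injury rated visually versus untreated controls after about ten greenhouse days, 0 (no effect) to 100 (complete control); dash means not tested.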

velvetleaf = test: Test A pre-/postemergence herbicide test; type: in vivo, Abutilon theophrasti; settings: for Velvetleaf plant response rating: Preemergence
In short: as §2

[4] = 62 g ai/ha, preemergence, scale 0 to 100
[5] = 125 g ai/ha, scale 0 (no effect) to 100 (complete control), visual, 12 to 14 days, preemergence
[6] = 250 g ai/ha, scale 0-100, preemergence
[7] = 500 g ai/ha, scale 0 to 100 (0 no effect, 100 complete control), visual, 12 to 14 days, preemergence
[8] = 125 g ai/ha, scale 0 (no effect) to 100 (complete control), visual, 12 to 14 days
[9] = 500 g ai/ha, scale 0 to 100 (0 no effect, 100 complete control), visual, 12 to 14 days
[10] = 125 g ai/ha, scale 0 to 100 (0 no effect, 100 complete control)
[11] = 250 g ai/ha, scale of 0 to 100, 0 is no effect, 100 is complete control
[12] = scale 0 to 100 (0 no effect, 100 complete control)
[13] = 62 g ai/ha, scale 0 to 100 (0 no effect, 100 complete control)
[14] = 2000 g ai/ha, 0 to 100 scale, 0 no effect, 100 complete control
[15] = 500 g ai/ha, visual rating, 0 to 100 scale (0 no effect, 100 complete control)
[16] = 125 g ai/ha, 0 to 100 scale, 0 is no effect, 100 is complete control
[17] = 31 g ai/ha, preemergence, scale 0 to 100
[18] = 250 g ai/ha, scale 0 to 100 (0 no effect, 100 complete control), visual, 12 to 14 days, preemergence
[19] = Postemergence, 250 g ai/ha, scale 0 to 100, 0 no effect, 100 complete control
[20] = postemergence, 125 g ai/ha, scale 0 to 100
[21] = postemergence, 62 g ai/ha, scale 0 to 100
[22] = 250 g ai/ha, scale 0 to 100 (0 no effect, 100 complete control), visual, 12 to 14 days
[23] = 125 g ai/ha, scale of 0 to 100, 0 is no effect, 100 is complete control

Compound	Plant response rating, Foxtail, Giant (giant foxtail; [5])	Plant response rating, Nightshade (eastern black nightshade; [8])	Rice plant response rating (rice [3]; [11])	Plant response rating, Rice (rice [3]; [12])	Barnyardgrass plant response rating (barnyardgrass; [13])	Barnyardgrass plant response rating (barnyardgrass; [11])	Plant response rating, Barnyardgrass (barnyardgrass; [12])	Plant response rating, Rice (rice [1]; [16])	Plant response rating, Foxtail, Giant (giant foxtail; [17])	Plant response rating (0 = no effect, 100 = complete control), Foxtail, Giant (giant foxtail; 62 g ai/ha, preemergence)	Plant response rating, Nightshade (eastern black nightshade; 31 g ai/ha, scale 0 to 100)	Plant response rating (0 = no effect, 100 = complete control), Nightshade (eastern black nightshade; 62 g ai/ha)	Plant response rating, Ragweed (common ragweed; [17])	Plant response rating (0 = no effect, 100 = complete control), Ragweed (common ragweed; 62 g ai/ha, preemergence)	Plant response rating, Ragweed (common ragweed; [5])	Plant response rating, Sunflower ([2]; 31 g ai/ha, scale 0 to 100)	Plant response rating (0 = no effect, 100 = complete control), Sunflower ([2]; 62 g ai/ha)	Plant response rating, Sunflower [2, 8]	other results
CCN1N=C(C(C)(C)C)CC1C(=O)Nc1cc(C(=O)N2CCCC2)ccc1F (racemic) [Compound 309]	80	80	75	75	50	85	90	–	–	–	–	–	–	–	–	–	–	–	Rice plant response rating (0 to 100 scale) (rice [1]; 125 g ai/ha, 0 = no effect, 100 = complete control): 70; Plant response rating, Rice (rice [1]; 500 g ai/ha, visual rating, 0 = no effect, 100 = complete control): 90; Plant response rating, Foxtail, Giant (giant foxtail; [4]): 70; Plant response rating, Foxtail, Giant (giant foxtail; [6]): 90; Plant response rating, Foxtail, Giant (giant foxtail; [7]): 100; Plant response rating, Nightshade (eastern black nightshade; 62 g ai/ha, scale 0 to 100): 70; Plant response rating, Nightshade (eastern black nightshade; 250 g ai/ha, scale 0-100): 100; Plant response rating, Nightshade (eastern black nightshade; [9]): 100; Plant response rating, Ragweed (common ragweed; [4]): 50; Plant response rating, Ragweed (common ragweed; [6]): 70; Plant response rating, Ragweed (common ragweed; [7]): 100; Plant response rating, Sunflower ([2]; 62 g ai/ha, scale 0 to 100): 0; Plant response rating, Sunflower ([2]; 250 g ai/ha, scale 0-100): 5; Plant response rating, Sunflower [2, 9]: 60; Rice plant response rating (rice [3]; 62 g ai/ha, scale 0 to 100): 60; Rice plant response rating (rice [3]; [10]): 70; Barnyardgrass plant response rating (barnyardgrass; [10]): 60
CCn1nc(C(C)(C)C)cc1C(=O)Nc1ccc(F)c(C(=O)NCCF)c1 [Compound 60]	15	90	–	–	–	–	–	30	0	0	10	30	0	10	80	0	0	0	Plant response rating, Morningglory (morningglory; 500 g ai/ha, 0 to 100 scale, 0 no effect, 100 complete control): 10; Plant response rating, Morningglory (morningglory; [14]): 20; Morningglory plant response rating (morningglory; [15]): 10; Morningglory plant response rating (morningglory; [14]): 40; Plant response rating, Velvetleaf (velvetleaf; Postemergence, 2000 g ai/ha, 0 to 100 scale, 0 no effect, 100 complete control): 20; Velvetleaf plant response rating (velvetleaf; [15]): 65; Velvetleaf plant response rating (velvetleaf; [14]): 95; Plant response rating, Foxtail, Giant (giant foxtail; [18]): 80; Plant response rating, Foxtail, Giant (giant foxtail; [19]): 5; Plant response rating, Foxtail, Giant (giant foxtail; [20]): 5; Plant response rating, Foxtail, Giant (giant foxtail; [21]): 0; Plant response rating, Nightshade (eastern black nightshade; [22]): 90; Plant response rating, Ragweed (common ragweed; [18]): 95; Plant response rating, Ragweed (common ragweed; [19]): 5; Plant response rating, Ragweed (common ragweed; [20]): 5; Plant response rating, Ragweed (common ragweed; [21]): 0; Plant response rating, Sunflower [2, 22]: 0
CCC(=NO)c1cccc(NC(=O)c2cc(C(C)(C)C)nn2C)c1 [Compound 118]	10	100	40	50	0	20	50	0	0	0	60	100	0	0	10	0	0	20	Rice plant response rating (rice [3]; [13]): 20; Rice plant response rating (rice [3]; [23]): 30; Barnyardgrass plant response rating (barnyardgrass; [23]): 20
